Earlier results on one substance are cited in patent US12623013B2, “Compounds, systems, and techniques for removal of peripheral amyloid beta peptide with albumin binding competitors” (Fresenius Medical Care Holdings, Inc., priority 2021, dated 2026).

The data set concerns the target human albumin (Homo sapiens, UniProt P02768). The following applies: read-out: binding constant to human albumin.

Sequence of human albumin (P02768 25-609): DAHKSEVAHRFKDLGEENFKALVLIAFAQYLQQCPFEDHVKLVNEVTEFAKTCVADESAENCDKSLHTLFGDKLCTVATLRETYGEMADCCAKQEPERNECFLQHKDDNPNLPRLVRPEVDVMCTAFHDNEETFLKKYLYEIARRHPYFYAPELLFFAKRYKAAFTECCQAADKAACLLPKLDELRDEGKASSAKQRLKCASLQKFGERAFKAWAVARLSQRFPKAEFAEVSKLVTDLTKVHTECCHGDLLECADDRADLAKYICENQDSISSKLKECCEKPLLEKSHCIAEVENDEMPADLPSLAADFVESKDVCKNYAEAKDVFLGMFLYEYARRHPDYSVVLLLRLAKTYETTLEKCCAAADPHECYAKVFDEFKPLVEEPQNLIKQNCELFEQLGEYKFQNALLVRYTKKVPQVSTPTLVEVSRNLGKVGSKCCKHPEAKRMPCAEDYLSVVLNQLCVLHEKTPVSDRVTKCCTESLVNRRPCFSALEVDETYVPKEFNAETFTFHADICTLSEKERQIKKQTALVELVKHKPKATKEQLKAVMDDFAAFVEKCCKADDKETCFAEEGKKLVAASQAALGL

Turning to Ac-WWEQDRDWDFDVFGGGTP-NH2 [89D03], the Kd was about 0.015 µM.
